Measurements as given in US6699494B2, “Pharmaceutical composition and method for treating premature labor” (Columbia Laboratories, Inc., priority 1997, dated 2004).
Read-outs that look alike come from different tables or passages of the source.

Assays:
[1] = oral administration, cited from earlier work
[2] = Side effects at the 0.8% dose in the single and multiple dose studies; type: in vivo, human; conditions: transvaginal gel
Source text: (§1) Both the single and multiple dose studies discussed in the preceding examples also evaluated the 0.8% w/w concentration. The average age±SD for the single and multiple dose studies at the 0.8 dose were 26±3.42 and 26±4.12, respectively. The pharmacokinetic parameters from the study follow in Tables 4 and 5.
A number of patients in the study (40%), however, experienced side effects such as tachycardia at this dose. […] This dose can be a method of practicing the invention, but is certainly not the most preferred embodiment.

[3] = Human ex vivo uterine perfusion model, vagina to uterus transfer of tritiated terbutaline; type: in vitro ADME
Description: This model verifies the preferential direct delivery of terbutaline from the vagina to the uterus. In this study, uteri obtained from women undergoing hysterectomies for benign diseases were immediately connected to an organ perfusion system in which temperature, CO2 concentration, uterine artery pressure and flow were maintained constant. A perfusion model was opened without recirculation. The direct transfer of terbutaline from the vagina to the uterus was analyzed by applying a mixture of tritiated [^3H] terbutaline and unlabeled terbutaline to the cuff of vaginal tissue remaining attached to the cervix after the hysterectomy. Tritiated terbutaline was only used for autoradiography analysis of sections of uterine tissue. The experiments were interrupted at predetermined time intervals after vaginal applications […]. At the end of the perfusion period, ^3H and ^14C radioactivity was measured in endometrial and myometrial samples. Tritiated water and ^14C dextran helped to determine that the extend of non-specific vagina to uterus transport (due to leaks of the system) was less than 10%. The myometrial extraction of terbutaline and its corresponding venous outflow during the 12 hour uterine perfusions are shown in FIG. 3 below. The ^3H terbutaline started to be recovered in the venous effluent uterine during the first 3 hours. Terbutaline flow was maximal at the 6th-9th hour and then decreased for up to 48 hours of perfusion. Terbutaline flow in the venous effluent uterine is the reflection of terbutaline exiting from the organ. Accumulation of tritiated terbutaline was maximal in the myometrium at 12 hours of perfusion. (Mean±SD of 18.40±3.40 ng/100 mg of tissue) and decreased slowly. Significant accumulation of ^3H terbutaline still remained at 48 hours of perfusion, with 20% of the original concentration present.

[4] = cited from earlier work
[5] = Single dose pharmacokinetic study of transvaginal terbutaline gel, serum terbutaline by GC-MS; type: in vivo, human
Description: The objective of this study was to assess the pharmacokinetic parameters of the terbutaline and polycarbophil composition following a single dose regimen comparing progressively increasing concentrations. This open-label study was conducted in ten healthy female volunteers with a mean age of 25±SD (Standard Deviation) of 3.93 years. This study consisted of a 30 day screening period and a 24 hour treatment period with a follow-up evaluation conducted two days after administration of the final dose. The drug was administered transvaginally at 9:00 a.m. A wash out period of at least one week as observed between each of the four doses of the drug. All subjects were given an estro-progestative pill, to ensure that all study participants were at the same point in their menstrual cycle. They began dosing on day 7 to 10 of their pill intake for the single dose study. Serum terbutaline concentrations were obtained from blood samples collected predosing on the mornings of treatment, at frequent intervals during the initial 24 hours post dose (0.5, 1, 1.5, 2, 4, 6, 8, 12, 24 hours) and at 48 hours post dose. Serum terbutaline concentrations were determined using gas chromatography-mass spectrometry. Pharmacokinetic parameters were computed using concentration-time data for each subject following intake of the last dose of investigational drug on the morning of study day 6. The following pharmacokinetic parameters were computed: area under the drug concentration-time curve from time 0 to time t (AUC0-t), where t is the time of the last measurable concentration; peak drug concentration (Cmax); time to peak drug concentration (tmax); steady state drug concentration (CSS); and, elimination half-life (t½).
All ten subjects completed the study for the 0.1%, 0.2%, and 0.4% (w/w) concentrations. For each dose, the onset of serum terbutaline concentrations occurred within 1 to 2 hours. (See FIG. 1 and Table 2 showing terbutaline concentrations for each tested dose). […] Concentrations were still detectable for up to 48 hours (mean±SEM (Standard Error of the Mean) of 113.11±32.25 pg/mL for the 0.4% concentration).
as §1

[6] = terbutaline inhaler, dysmenorrhea; cited from earlier work
[7] = ex vivo perfused uterus, vaginal application
[8] = female, human, 0.1 % (w/w), 0.1% gel, serum, mean ± SEM, n=10
[9] = female, human, 0.2 % (w/w), 0.2% gel, serum, mean ± SEM, n=10
[10] = female, human, 0.4 % (w/w), 0.4% gel, serum, mean ± SEM, n=10
[11] = female, human, 0.8 % w/w, 0.8% gel, serum, mean ± SEM, n=8

In the case of `CC(C)(C)NCC(O)c1cc(O)cc(O)c1` (stereo not shown) [Terbutaline, 5-[2-[(1,1-dimethylethyl)amino]-1-hydroxyethyl]-1,3-benzenediol], the Bioavailability ([1]; extensive first-pass sulphation) is given as 15 and 20%, the “further decrease of bioavailability by concomitant food intake” value [1] is given as 30% and the “patients who experienced side effects such as tachycardia” value [2] is given as 40%. For the same compound, the “time terbutaline lasted in the myometrium” value ([3]; after a single vaginal application) was “over 48 hours”, the “accumulation of tritiated terbutaline in the myometrium” value ([3]; at 12 hours of perfusion, Mean±SD) was 18.40±3.40 ng/100 mg of tissue and the “3H terbutaline remaining, share of the original concentration” value ([3]; at 48 hours of perfusion) was 20%. The “time of maximal accumulation of tritiated terbutaline in the myometrium” value [3, 7] was 12 h, the “time within which 3H terbutaline started to be recovered in the venous effluent” value [3, 7] was at most 3 h and the “known serum levels for toxicity” value ([4]; prior art) was 3000 pg/mL. The “known serum threshold susceptible to trigger systemic adverse events such as tachycardia and tremor” value ([4]; reported in prior art) was 3,000-3,500 pg/mL, the “time for which serum concentrations were still detectable” value [5] was “up to 48 hours” and the Css ([5]; 0.1% gel, serum, mean ± SEM, n=10) was 0.056 ± 0.041 ng/mL. It also gave a Css ([5]; 0.2% gel, serum, mean ± SEM, n=10) of 0.191 ± 0.108 ng/mL, a Css ([5]; 0.8% gel, serum, mean ± SEM, n=8) of 0.579 ± 0.3 ng/mL and a Cmax [5, 8] of 0.117 ± 0.059 ng/mL. For the same compound, the Tmax [5, 8] was 13 ± 6 h, the AUC(0-t) ([5]; female, human, 0.1 % (w/w), 0.1% gel, serum, mean ± SEM, n=10, read-out: AUC0 to 48) was 2.28 ± 1.84 ng·h/mL and the half-life ([5]; female, human, 0.1 % (w/w), 0.1% gel, serum, mean ± SEM, n=10, read-out: t½ (converted)) was 18 ± 12 h. It also gave a Cmax [5, 9] of 0.297 ± 0.17 ng/mL, a Tmax [5, 9] of 13 ± 6 h and an AUC(0-t) ([5]; female, human, 0.2 % (w/w), 0.2% gel, serum, mean ± SEM, n=10, read-out: AUC0 to 48) of 8.01 ± 4.7 ng·h/mL. The half-life ([5]; female, human, 0.2 % (w/w), 0.2% gel, serum, mean ± SEM, n=10, read-out: t½ (converted)) was 29 ± 15 h, the Cmax [5, 10] was 0.479 ± 0.149 ng/mL and the Tmax [5, 10] was 14 ± 7 h. It also gave an AUC(0-t) ([5]; female, human, 0.4 % (w/w), 0.4% gel, serum, mean ± SEM, n=10, read-out: AUC0 to 48) of 11.9 ± 5.28 ng·h/mL, a half-life ([5]; female, human, 0.4 % (w/w), 0.4% gel, serum, mean ± SEM, n=10, read-out: t½ (converted)) of 24 ± 16 h and an AUC(0-t) ([5]; female, human, 0.8 % w/w gel, 0.8% gel, serum, mean ± SEM, n=8, read-out: AUC0 to 48) of 23.2 ± 13.5 ng·h/mL. The Cmax [5, 11] was 0.787 ± 0.434 ng/mL, the Tmax [5, 11] was 10 ± 3 h and the half-life ([5]; female, human, 0.8 % w/w, 0.8% gel, serum, mean ± SEM, n=8, read-out: t½ (converted)) was 20 ± 7 h. For the same compound, the half-life ([5]; female, human, serum, according to the dose administered (0.1%-0.4%), read-out: Mean t½ estimates) was 18 to 29 h, the concentration at 48 h ([5]; female, human, serum, other: transvaginal, 0.4 % (w/w), 0.4% concentration, mean±SEM) was 0.113 ± 0.0323 ng/mL and the “onset of serum terbutaline concentrations” value ([5]; for each dose (0.1%, 0.2%, 0.4%)) was 1 to 2 h. The “duration of the effect of each spray” value [6] was at least 1 h.
